Laboratory results: patent EP0054974A1, “Imidazolylpropanol compounds and their acid addition salts, and production and use thereof” (SUMITOMO CHEMICAL COMPANY, LIMITED, priority 1980, dated 1982)
Converted amounts (≈) assume the structure as drawn.

How the values were obtained:
[1] = system: Candida albicans Ohta; experiment: Antifungal activity in vitro, minimum inhibitory concentration on Sabouraud's agar medium; assay type: cell-based
Description: (§1) The antifungal activity of some representatives of the imidazolylpropanol compounds (I) in in vitro test is as shown below.

[2] = system: Trichophyton rubrum; experiment: as above; assay type: cell-based
Description: as §1

[3] = system: Candida albicans MTU12001; experiment: as above; assay type: cell-based
Description: as §1

[4] = system: Candida albicans KB-8; experiment: Antifungal activity in vivo (decrease of cells in the kidney of Candida-infected mice); details: for log reduction at 20 mg/kg: number of cells in kidney, 24 hours after infection; for Medicated group, number of cells in kidney: male DDY mice infected i.v. with Candida albicans KB-8, kidneys 24 hours after infection
Experimental: The in vivo test of the antifungal activity with the said representative ones of the imidazolylpropanol compounds (I) was carried out in the following manner:
Candida albicans KB-8 cultured on the Sabroud's. agar plate admixed with blood in a concentration of 5 % by weight at 30°C for 4 days was suspended in physiologically saline solution to make a number of cells of 10^7/ml. The suspension was intravenously injected through the tail vein into 5 week old male DDY mice at a dose of 0.2 ml per mouse. […]
After 24 hours from the infection, the animals were killed and the kidneys were taken out. Each kidney was admixed with sea sand and smashed. After diluting with physiologically saline solution to give 5 times in volume, the dilution was centrifuged at 900 rpm for 5 minutes. A certain amount of the supernatant was scattered on a Sabroud's agar plate and cultured at 37°C for 48 hours. Then, the number of colonies was counted, the number of cells per one gram of the kidney was calculated, and the difference between the calculated numbers in the medicated group and in the non-medicated group was expressed by a logarithmic value.

[5] = Candida albicans, KB8, po, dose 20 mg/kg per os, read-out: Medicated/Non-medicated (logarithmic value)

Row | SMILES | MIC [1] [µg/mL] | MIC [2] [µg/mL] | MIC [3] [µg/mL] | log reduction at 20 mg/kg [4, 5] | Medicated group, number of cells in kidney ([4]; dose 20 mg/kg per os) | log reduction at 100 mg/kg ([4]; Candida albicans, KB8, po, 24 h, read-out: Medicated/Non-medicated (logarithmic value)) | Medicated group, number of cells in kidney ([4]; dose 100 mg/kg per os)
1 | CCCCOCC(O)(Cn1ccnc1)c1ccc(Cl)cc1Cl (stereo not drawn) [CH3-(CH2)3-O-, 3-n-butyloxy-2-(2,4-dichlorophenyl)-l-(imidazol-l-yl)-2-propanol] | 40 (≈ 117 µM) | 0.6 (≈ 1.75 µM) | 5 (≈ 14.6 µM) |  |  |  | 
2 | OCCNCC(O)(Cn1ccnc1)c1ccc(Cl)cc1Cl (stereo not drawn) [the 5th table, row 1] | 40 to 100 (≈ 121 to 303 µM) | 40 to 100 (≈ 121 to 303 µM) | 40 to 100 (≈ 121 to 303 µM) |  |  |  | 
3 | CCCCCCNCC(O)(Cn1ccnc1)c1ccc(Cl)cc1Cl (stereo not drawn) [CH3-(CH2)5-NH-] |  |  |  | 1.52 | 1.75x10^3 cell/g |  | 
4 | OC(CNCCN1CCOCC1)(Cn1ccnc1)c1ccc(Cl)cc1Cl (stereo not drawn) [the 5th table, row 2] | 40 to 100 (≈ 100 to 250 µM) | 40 to 100 (≈ 100 to 250 µM) | 40 to 100 (≈ 100 to 250 µM) |  |  |  | 
5 | OC(COCCc1ccccc1)(Cn1ccnc1)c1ccc(Cl)cc1Cl (stereo not drawn) | 40 (≈ 102 µM) | 2.5 (≈ 6.39 µM) | 0.6 (≈ 1.53 µM) |  |  |  | 
6 | CCCCSCC(O)(Cn1ccnc1)c1ccc(Cl)cc1Cl (stereo not drawn) [CH3-(CH2)3-S-] | 1.25 (≈ 3.48 µM) | 0.6 (≈ 1.67 µM) | 0.075 (≈ 0.209 µM) |  |  |  | 
7 | OC(CSc1ccncc1)(Cn1ccnc1)c1ccc(Cl)cc1Cl (stereo not drawn) | 40 to 100 (≈ 105 to 263 µM) | 20 (≈ 52.6 µM) | 10 (≈ 26.3 µM) |  |  |  | 
8 | OC(COCc1ccccc1)(Cn1ccnc1)c1ccc(Cl)cc1Cl (stereo not drawn) | 40 (≈ 106 µM) | 0.6 (≈ 1.59 µM) | 10 (≈ 26.5 µM) |  |  |  | 
9 | CCCCCCCCSCC(O)(Cn1ccnc1)c1ccc(Cl)cc1Cl (stereo not drawn) [CH3-(CH2)7-S-] | 1.25 (≈ 3.01 µM) | 0.3 (≈ 0.722 µM) | 0.15 (≈ 0.361 µM) |  |  |  | 
10 | Cc1cccc(SCC(O)(Cn2ccnc2)c2ccc(Cl)cc2Cl)c1 (stereo not drawn) | 0.6 (≈ 1.53 µM) | 5 (≈ 12.7 µM) | 0.15 (≈ 0.381 µM) |  |  |  | 
11 | OC(CNCC1CCCO1)(Cn1ccnc1)c1ccc(Cl)cc1Cl (stereo not drawn) [the 5th table, row 4] | 40 to 100 (≈ 108 to 270 µM) | 40 to 100 (≈ 108 to 270 µM) | 40 to 100 (≈ 108 to 270 µM) |  |  |  | 
12 | OC(CN1CCN(Cc2ccccc2)CC1)(Cn1ccnc1)c1ccc(Cl)cc1Cl (stereo not drawn) [the 7th table, row 7] |  |  |  | 1.15 | 4.09x10^3 cell/g |  | 
13 | OC(CNCCN1CCOCC1)(Cn1ccnc1)c1ccc(Cl)cc1Cl (stereo not drawn) [the 6th table, row 7] |  |  |  | 1.23 | 9.78x10^3 cell/g |  | 
14 | OCCNCC(O)(Cn1ccnc1)c1ccc(Cl)cc1Cl (stereo not drawn) [the 6th table, row 6] |  |  |  | 1.58 | 1.91x10^3 cell/g |  | 
15 | CN1CCN(CC(O)(Cn2ccnc2)c2ccc(Cl)cc2Cl)CC1 (stereo not drawn) [the 7th table, row 5] |  |  |  | 1.59 | 8.32x10^3 cell/g |  | 
16 | OC(COCCSc1ccccc1)(Cn1ccnc1)c1ccc(Cl)cc1Cl (stereo not drawn) | 20 (≈ 47.2 µM) | 5 (≈ 11.8 µM) | 1.25 (≈ 2.95 µM) |  |  |  | 
17 | CCCCCCSCC(O)(Cn1ccnc1)c1ccc(Cl)cc1Cl (stereo not drawn) [CH3-(CH2)5-S-] | 2.5 (≈ 6.45 µM) | 0.6 (≈ 1.55 µM) | 0.3 (≈ 0.774 µM) |  |  |  | 
18 | OC(CSc1ccc(F)cc1)(Cn1ccnc1)c1ccc(Cl)cc1Cl (stereo not drawn) | 2.5 (≈ 6.29 µM) | 40 (≈ 101 µM) | 0.3 (≈ 0.755 µM) |  |  |  | 
19 | COc1ccc(SCC(O)(Cn2ccnc2)c2ccc(Cl)cc2Cl)cc1 (stereo not drawn) | 5 (≈ 12.2 µM) | 20 (≈ 48.9 µM) | 0.3 (≈ 0.733 µM) |  |  |  | 

Row | SMILES | MIC [1] [µg/mL] | MIC [2] [µg/mL] | MIC [3] [µg/mL] | log reduction at 20 mg/kg [4, 5] | Medicated group, number of cells in kidney ([4]; dose 20 mg/kg per os) | log reduction at 100 mg/kg ([4]; Candida albicans, KB8, po, 24 h, read-out: Medicated/Non-medicated (logarithmic value)) | Medicated group, number of cells in kidney ([4]; dose 100 mg/kg per os)
20 | OC(CSc1ccccc1)(Cn1ccnc1)c1ccc(Cl)cc1Cl (stereo not drawn) | 5 (≈ 13.2 µM) | 10 (≈ 26.4 µM) | 0.15 (≈ 0.395 µM) |  |  |  | 
21 | OC(CNC1CCCCC1)(Cn1ccnc1)c1ccc(Cl)cc1Cl (stereo not drawn) |  |  |  | 1.27 | 8.91x10^3 cell/g |  | 
22 | OC(CN1CCN(c2ccccc2)CC1)(Cn1ccnc1)c1ccc(Cl)cc1Cl (stereo not drawn) [the 5th table, row 6] | 20 (≈ 46.4 µM) | 0.6 (≈ 1.39 µM) | 5 (≈ 11.6 µM) |  |  |  | 
23 | CCCCCSCC(O)(Cn1ccnc1)c1ccc(Cl)cc1Cl (stereo not drawn) [CH3-(CH2)4-S-] | 5 (≈ 13.4 µM) | 1.25 (≈ 3.35 µM) | 1.25 (≈ 3.35 µM) |  |  |  | 
24 | OC(CNCc1ccccc1)(Cn1ccnc1)c1ccc(Cl)cc1Cl (stereo not drawn) [the 5th table, row 0] | 40 to 100 (≈ 106 to 266 µM) |  | 40 to 100 (≈ 106 to 266 µM) |  |  |  | 
25 | CC(C)SCC(O)(Cn1ccnc1)c1ccc(Cl)cc1Cl (stereo not drawn) | 40 (≈ 116 µM) | 5 (≈ 14.5 µM) | 0.6 (≈ 1.74 µM) |  |  |  | 
26 | OC(CNCc1ccco1)(Cn1ccnc1)c1ccc(Cl)cc1Cl (stereo not drawn) [the 7th table, row 3] |  |  |  | 1.05 | 5.13x10^3 cell/g |  | 
27 | C=CCOCC(O)(Cn1ccnc1)c1ccc(Cl)cc1Cl (stereo not drawn) [CH2=CH-CH2-O-] | 40 to 100 (≈ 122 to 306 µM) | 10 (≈ 30.6 µM) | 1.25 (≈ 3.82 µM) |  |  |  | 
28 | OC(COc1ccccc1Cl)(Cn1ccnc1)c1ccc(Cl)cc1Cl (stereo not drawn) | 20 (≈ 50.3 µM) | 5 (≈ 12.6 µM) | 1.25 (≈ 3.14 µM) |  |  |  | 
29 | OC(CNCC1CCCO1)(Cn1ccnc1)c1ccc(Cl)cc1Cl (stereo not drawn) [the 7th table, row 4] |  |  |  | 1.01 | 5.62x10^3 cell/g |  | 
30 | OC(CNCc1ccco1)(Cn1ccnc1)c1ccc(Cl)cc1Cl (stereo not drawn) [the 5th table, row 3] | 40 to 100 (≈ 109 to 273 µM) | 40 to 100 (≈ 109 to 273 µM) | 40 to 100 (≈ 109 to 273 µM) |  |  |  | 
31 | OC(CNCc1ccccc1)(Cn1ccnc1)c1ccc(Cl)cc1Cl (stereo not drawn) [the 6th table, row 5] |  |  |  | 1.6 | 4.17x10^3 cell/g |  | 
32 | CC(C)CCOCC(O)(Cn1ccnc1)c1ccc(Cl)cc1Cl (stereo not drawn) | 40 (≈ 112 µM) | 5 (≈ 14 µM) | 0.6 (≈ 1.68 µM) |  |  |  | 
33 | OC(CN1CCN(Cc2ccccc2)CC1)(Cn1ccnc1)c1ccc(Cl)cc1Cl (stereo not drawn) [the 5th table, row 7] | 40 to 100 (≈ 89.8 to 225 µM) | 20 (≈ 44.9 µM) | 40 to 100 (≈ 89.8 to 225 µM) |  |  |  | 
34 | Clc1ccc(COC(Cn2ccnc2)c2ccc(Cl)cc2Cl)c(Cl)c1 (stereo not drawn) [Miconazole, 1-[2,4-Dichloro-β-(2,4-dichlorobenzyloxy)phenylethyl]imidazole, reference compound] |  |  |  |  |  | 0.8 | 2.96x10^4 cell/g
35 | CN1CCN(CC(O)(Cn2ccnc2)c2ccc(Cl)cc2Cl)CC1 (stereo not drawn) [the 5th table, row 5] | 40 (≈ 108 µM) | 40 to 100 (≈ 108 to 271 µM) | 2.5 (≈ 6.77 µM) |  |  |  | 
36 | OC(CSCc1ccccc1)(Cn1ccnc1)c1ccc(Cl)cc1Cl (stereo not drawn) | 2.5 (≈ 6.36 µM) | 5 (≈ 12.7 µM) | 0.075 (≈ 0.191 µM) |  |  |  | 
37 | OC(CN1CCN(c2ccccc2)CC1)(Cn1ccnc1)c1ccc(Cl)cc1Cl (stereo not drawn) [the 7th table, row 6] |  |  |  | 1.58 | 1.52x10^3 cell/g |  | 
